The target of one experiment is JNK3 (M146A/D150G) (Homo sapiens, UniProt P53779, D150G/M146A). Put plainly: Coupled spectrophotometric kinase assay, JNK3 (M146A/D150G).
For the next experiment, the target named is ERK2 (Q105A) (Homo sapiens, UniProt P28482, Q105A). Put plainly: Coupled spectrophotometric kinase assay, ERK2 (Q105A). Format: biochemical.
Another experiment deals with JNK3 (wild-type) (Homo sapiens, UniProt P53779). The experiment can be described thus: Coupled spectrophotometric kinase assay, JNK3 (wild-type).
The target of the next experiment is ERK2 (Q105T) (Homo sapiens, UniProt P28482, Q105T). Put plainly: Coupled spectrophotometric kinase assay, ERK2 (Q105T). Format: biochemical.
Another experiment concerns the target ERK2 (wild-type) (Homo sapiens, UniProt P28482). The experiment can be described thus: Coupled spectrophotometric kinase assay, ERK2 (wild-type). It is filed as biochemical.
Another experiment concerns the target p38 (Homo sapiens, UniProt Q16539). The experiment can be described thus: Coupled spectrophotometric kinase assay, p38. It is filed as biochemical. The note with it: read-out: KM for ATP.
In the next experiment the target is JNK3 (M146A) (Homo sapiens, UniProt P53779, M146A). The experiment can be described thus: Coupled spectrophotometric kinase assay, JNK3 (M146A).
Setting [1] is: 100 μM ATP, 200 μM EGF receptor peptide, read-out: Inhibition constants, Ki.

JNK3 (wild-type), sequence (P53779 40-402): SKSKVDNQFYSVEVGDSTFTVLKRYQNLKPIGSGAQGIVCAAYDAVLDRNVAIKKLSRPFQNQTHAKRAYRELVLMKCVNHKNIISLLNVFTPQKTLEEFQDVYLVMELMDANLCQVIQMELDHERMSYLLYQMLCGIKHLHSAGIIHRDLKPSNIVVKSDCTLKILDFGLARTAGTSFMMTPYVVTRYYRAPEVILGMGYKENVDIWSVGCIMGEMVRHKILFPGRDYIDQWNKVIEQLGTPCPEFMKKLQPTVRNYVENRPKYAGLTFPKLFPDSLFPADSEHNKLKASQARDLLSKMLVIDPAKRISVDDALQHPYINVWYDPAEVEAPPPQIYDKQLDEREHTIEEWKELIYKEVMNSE
JNK3 (M146A/D150G), sequence (P53779 40-402 M146A/D150G): as the sequence (P53779 40-402) above, with M107A, D111G counted along it
JNK3 (M146A), sequence (P53779 40-402 M146A): as the sequence (P53779 40-402) above, with M107A counted along it
p38, sequence (Q16539 whole entry): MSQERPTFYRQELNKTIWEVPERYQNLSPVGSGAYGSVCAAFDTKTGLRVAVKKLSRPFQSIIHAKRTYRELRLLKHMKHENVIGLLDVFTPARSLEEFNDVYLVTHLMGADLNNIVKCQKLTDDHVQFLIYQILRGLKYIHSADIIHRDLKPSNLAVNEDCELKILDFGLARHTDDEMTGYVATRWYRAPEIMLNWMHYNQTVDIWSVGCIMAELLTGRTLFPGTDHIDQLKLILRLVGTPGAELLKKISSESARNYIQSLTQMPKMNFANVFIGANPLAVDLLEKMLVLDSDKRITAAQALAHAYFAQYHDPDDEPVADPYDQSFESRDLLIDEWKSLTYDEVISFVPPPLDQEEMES

As for `Nc1ncnc2c1ncn2[C@@H]1O[C@H](COP(=O)(O)OP(=O)(O)OP(=O)(O)O)[C@@H](O)[C@H]1O` [ATP], the Km on JNK3 (M146A/D150G) (read-out: KM for ATP, JNK3 (M146A/D150G)) stood at 311 µM; at ERK2 (Q105A) (read-out: KM for ATP), 51 ± 6 µM; on JNK3 (wild-type) (read-out: KM for ATP, JNK3 (wild-type)), 15 µM; at ERK2 (Q105T) (read-out: KM for ATP), 33 ± 4 µM; at ERK2 (wild-type) (read-out: KM for ATP) it was 76 ± 14 µM; on p38, 260 ± 30 µM. Besides, the Km at JNK3 (M146A) (read-out: KM for ATP, JNK3 (M146A)) was determined as 75 µM.

`Oc1ccc(-c2nc(-c3ccc(F)cc3)c(-c3ccncc3)[nH]2)cc1` [SB202190, reference compound]: the “sensitivity of the JNK3 double mutant (in words)” value on JNK3 (M146A/D150G) (JNK3 (M146A/D150G) compared with wild-type and single mutant) was “considerably more sensitive than wild-type, but significantly less than observed for the single mutant”. The values for the inhibitory constant (Ki) at ERK2 (Q105A) (setting [1]), on ERK2 (Q105T) (setting [1]) and on ERK2 (wild-type) (setting [1]) were 0.81 ± 0.19 nM, 6.8 ± 0.6 nM and greater than 20000 nM, respectively. Moreover, at JNK3 (wild-type) (wild-type JNK3), the “sensitivity of wild-type JNK3 (in words)” value is “moderately sensitive”. The “increase in sensitivity versus wild-type JNK3” value on JNK3 (M146A) (JNK3 M146A mutant) is listed as ~4,000 fold.

Broadly, the Km is the substrate concentration at which the rate is half of its maximum. As usually defined, the Ki is the dissociation constant of the complex between target and ligand, obtained from inhibition or displacement.

The values above are taken from patent US6849716B1, “Methods for designing inhibitors of serine/threonine kinases and tyrosine kinases” (Vertex Pharmaceuticals Incorporated, priority 1998, dated 2005).
